{"source": "patent US20210379066A1", "about": "“COMBINATIONS OF POSITIVE ALLOSTERIC MODULATORS AND NICOTINIC ACETYLCHOLINE RECEPTOR AGONISTS FOR TREATING OCULAR CONDITIONS” (Oyster Point Pharma, Inc., priority 2018, published 2021)", "key": {"[1]": {"test": "Pharmacokinetics in human subjects after 28 days of intranasal administration (Example 7)", "assay_type": "in vivo", "protocol": "Blood plasma for the patients was collected on Day 29 predose (time 0) and after a series of time points (10 min, 20 min, 30 min, 1 hr, 2 hrs, 4 hrs, 5 hrs, 6 hrs, 7 hrs, 8 hrs, and 24 hrs) after a single administration of drug. The blood plasma was analyzed for Compound 1.\nThe following pharmacokinetic parameters for Compound 1 were calculated: • Cmax: Maximum observed concentration, observed by inspection of individual study participant plasma concentration time plots. • Tmax: Time of maximum observed concentration, obtained directly from the observed concentration time data. • AUClast: The area under the plasma concentration time curve, from time 0 to the last measurable non-zero concentration, calculated by a combination of linear and logarithmic trapezoidal methods (Linear up/log down method). • AUC0-4h: The area under the plasma concentration time curve, from time 0 to the 4 h time point, calculated by a combination of linear and logarithmic trapezoidal methods (Linear up/log down method). • AUCinf: The area from zero time (pre-dose) extrapolated to infinite time (AUCinf) will be calculated as follows: AUCinf=AUClast+Cz/λz. • AUC % Extrap: The percentage of AUCinf obtained by extrapolation (AUC % Extrap) will be calculated as follows:\n[formula] • Half-life: Terminal elimination half-life."}, "[2]": {"biological_target": "nAChR subtype alpha3beta2 (Homo sapiens, UniProt P17787+P32297)", "sequence (P32297 32-505)": "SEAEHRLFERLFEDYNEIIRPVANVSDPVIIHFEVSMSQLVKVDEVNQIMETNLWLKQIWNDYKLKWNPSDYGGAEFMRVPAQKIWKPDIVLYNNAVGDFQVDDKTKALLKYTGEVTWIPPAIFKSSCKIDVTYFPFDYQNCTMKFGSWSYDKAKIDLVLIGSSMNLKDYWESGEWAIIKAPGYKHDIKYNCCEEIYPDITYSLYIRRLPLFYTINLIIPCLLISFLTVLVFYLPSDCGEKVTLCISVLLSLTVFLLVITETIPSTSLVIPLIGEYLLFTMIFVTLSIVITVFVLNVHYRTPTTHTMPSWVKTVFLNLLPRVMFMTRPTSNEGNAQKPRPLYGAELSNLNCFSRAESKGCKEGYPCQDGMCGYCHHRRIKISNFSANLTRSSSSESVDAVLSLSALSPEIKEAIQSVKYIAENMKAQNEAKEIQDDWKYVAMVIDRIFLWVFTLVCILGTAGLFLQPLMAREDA", "sequence (P17787 26-502)": "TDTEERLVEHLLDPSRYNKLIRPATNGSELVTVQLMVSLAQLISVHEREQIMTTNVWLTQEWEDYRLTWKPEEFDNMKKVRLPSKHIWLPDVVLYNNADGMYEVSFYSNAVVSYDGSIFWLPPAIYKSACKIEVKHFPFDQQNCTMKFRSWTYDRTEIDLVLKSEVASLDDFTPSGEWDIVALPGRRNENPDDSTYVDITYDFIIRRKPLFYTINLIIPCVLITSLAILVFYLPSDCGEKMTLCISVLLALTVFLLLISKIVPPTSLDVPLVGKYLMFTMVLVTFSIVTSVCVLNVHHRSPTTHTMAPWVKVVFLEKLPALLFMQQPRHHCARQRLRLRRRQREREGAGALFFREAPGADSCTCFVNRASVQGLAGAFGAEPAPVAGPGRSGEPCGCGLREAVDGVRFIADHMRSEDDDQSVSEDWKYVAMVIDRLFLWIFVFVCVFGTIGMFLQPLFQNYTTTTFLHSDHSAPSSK", "test": "Agonist characterisation versus ACh response (description)", "assay_type": "cell-based", "text": "nAChR agonist response, from which receptor activation can be determined can, for example, be generated using an appropriate cell-based assay. Cells designed to express a particular nAChR receptor subtype and generate an electrical current response when bound to and activated by a nAChR agonist can be used to characterize the agonist profile of a compound and the amount of receptor activation thus determined. An example of a generic protocol is described below.\nCells that express a particular human nAChR subtype are first exposed to ACh. ACh binds and activates the receptor, thereby evoking a current. The concentration of the ACh is chosen to elicit the maximum response of the receptor (e.g., 1280 micromolar ACh). This current is recorded as the ACh response and serves as the 100% nAChR agonist response and to which responses to other nAChR agonists are compared. After washing, the cells are exposed to a nAChR agonist at various concentrations (e.g., 0.1, 0.3, 1, 3, 10, 30, 100, and 300 micromolar). The current evoked by exposure to the nAChR agonist is measured and recorded for each nAChR concentration. This nAChR agonist response data is then normalized to unity versus the maximal ACh evoked current and plotted as a function of the logarithm of the nAChR agonist concentration. The nAChR agonist response is then calculated as a percentage of the ACh response."}, "[3]": {"test": "Measured plasma Cmax after nasal spray (Example 4)", "assay_type": "in vivo", "conditions": "human, inhaled or intranasal; blood plasma of 30 individuals; nasal spray of 1.1% compound 1 free base (2.0% hemi-galactarate dihydrate), 200 microliters total, about 2216 micrograms free base", "protocol": "A dose of a nAChR agonist, or a pharmaceutically acceptable salt thereof, is administered to an individual. Examples of dose and volume ranges are described herein.\nA blood sample is collected from an individual before administration of a nAChR agonist, or a pharmaceutically acceptable salt thereof. After administration of the nAChR agonist, or a pharmaceutically acceptable salt thereof, to the individual, multiple blood samples are collected over a period of time at certain intervals. For instance, blood samples are collected at 10 minutes, 20 minutes, 30 minutes, 1 hour, 2 hours, 3 hours, and 4 hours after administration of the nAChR agonist, or a pharmaceutically acceptable salt thereof.\nBlood samples (4 mL in K2EDTA tubes) are collected from an arm vein into Vacutainer tubes containing K2EDTA. […]\nAll pharmacokinetic (PK) analyses and reporting are performed according to generally accepted standard operating procedures and protocol specifications. Pharmacokinetic parameters are calculated by use of generally accepted software tools, for instance Phoenix® WinNonlin® 8.0.\nA plasma concentration time plot is created by plotting the concentration of the nAChR agonist, or pharmaceutically acceptable salt thereof, as a function of time. Cmax is calculated by inspection of an individual's plasma concentration time plot. […] The Cmax is calculated for an individual after a treatment. […]"}, "[4]": {"conditions": "Max, N=7, Day 29 dose after 28 days BID"}, "[5]": {"conditions": "Min, N=7, Day 29 dose after 28 days BID"}, "[6]": {"conditions": "human, plasma, other: intranasal spray, […] Compound 1, 50 μL spray in each nostril, Max, N=7, Day 29 dose after 28 days BID"}, "[7]": {"conditions": "human, plasma, other: intranasal spray, […] Compound 1, 50 μL spray in each nostril, Mean, N=7, Day 29 dose after 28 days BID"}, "[8]": {"conditions": "human, plasma, other: intranasal spray, […] Compound 1, 50 μL spray in each nostril, Median, N=7, Day 29 dose after 28 days BID"}}, "note": "Values joined by “and” are separate entries in the source; they are usually repeats but may differ in a detail not shown here. Equal values may be shown once. Read-outs that look alike come from different tables or passages of the source."}
{"smiles": "C(=C\\[C@H]1CCNC1)/c1cncnc1", "note": "[Compound 1, (R)-5-((E)-2-pyrrolidin-3-ylvinyl)pyrimidine]", "values": [{"measurement": "AUC % Extrap", "setting": "[1]; [4]", "value": 41.1, "unit": "%"}, {"measurement": "Tmax", "setting": "[1]; [4]", "value": 1.2, "unit": "h"}, {"measurement": "AUC % Extrap", "setting": "[1]; Mean, N=7, Day 29 dose after 28 days BID", "value": 21.3, "unit": "%"}, {"measurement": "AUC % Extrap", "setting": "[1]; Median, N=7, Day 29 dose after 28 days BID", "value": 23.3, "unit": "%"}, {"measurement": "AUC % Extrap", "setting": "[1]; [5]", "value": "3.69% and 3.67%"}, {"measurement": "AUCinf", "setting": "[1]; [5]", "value": 1.21, "unit": "ng·h/mL"}, {"measurement": "AUClast", "setting": "[1]; [5]", "value": 0.801, "unit": "ng·h/mL"}, {"measurement": "Cmax", "setting": "[1]; [5]", "value": 0.621, "unit": "ng/mL"}, {"measurement": "Tmax", "setting": "[1]; [5]", "value": 0.17, "unit": "h"}, {"measurement": "half-life", "setting": "[1]; [5]", "value": 0.852, "unit": "h"}, {"measurement": "half-life", "setting": "[1]; human, plasma, inhaled or intranasal, […] Compound 1, 50 μL spray in each nostril, Mean, N=7, Day 29 single intranasal dose of […] Compound 1 (2.0% hemigalactarate salt) after 28 days BID, 50 μL per nostril, read-out: Half-life (converted)", "value": "1.58 ± 0.818", "unit": "h"}, {"measurement": "Cmax", "setting": "[1]; human, plasma, other: intranasal spray, […] Compound 1, 50 μL spray in each nostril, Max (individual subject maximum), N=7, Day 29 dose after 28 days BID, read-out: Cmax", "value": 5.49, "unit": "ng/mL"}, {"measurement": "AUC(0-inf)", "setting": "[1]; [6]", "value": 12.5, "unit": "ng·h/mL"}, {"measurement": "AUC(0-t)", "setting": "[1]; [6]", "value": 12.1, "unit": "ng·h/mL"}, {"measurement": "half-life", "setting": "[1]; human, plasma, other: intranasal spray, […] Compound 1, 50 μL spray in each nostril, Max, N=7, Day 29 dose after 28 days BID, read-out: Half-life (converted)", "value": 2.83, "unit": "h"}, {"measurement": "AUC(0-inf)", "setting": "[1]; [7]", "value": "6.22 ± 4.63", "unit": "ng·h/mL"}, {"measurement": "AUC(0-t)", "setting": "[1]; [7]", "value": "5.22 ± 4.52", "unit": "ng·h/mL"}, {"measurement": "Cmax", "setting": "[1]; human, plasma, other: intranasal spray, […] Compound 1, 50 μL spray in each nostril, Mean, N=7, Day 29 dose after 28 days BID, read-out: Cmax", "value": "2.26 ± 1.96", "unit": "ng/mL"}, {"measurement": "Tmax", "setting": "[1]; human, plasma, other: intranasal spray, […] Compound 1, 50 μL spray in each nostril, Mean, N=7, Day 29 dose after 28 days BID, read-out: Tmax", "value": 0.7, "unit": "h"}, {"measurement": "AUC(0-inf)", "setting": "[1]; [8]", "value": 5.67, "unit": "ng·h/mL"}, {"measurement": "AUC(0-t)", "setting": "[1]; [8]", "value": 4.35, "unit": "ng·h/mL"}, {"measurement": "Cmax", "setting": "[1]; human, plasma, other: intranasal spray, […] Compound 1, 50 μL spray in each nostril, Median, N=7, Day 29 dose after 28 days BID, read-out: Cmax", "value": 1.35, "unit": "ng/mL"}, {"measurement": "half-life", "setting": "[1]; human, plasma, other: intranasal spray, […] Compound 1, 50 μL spray in each nostril, Median, N=7, Day 29 dose after 28 days BID, read-out: Half-life (converted)", "value": 1.12, "unit": "h"}, {"measurement": "Tmax", "setting": "[1]; human, plasma, other: intranasal spray, […] Compound 1, 50 μL spray in each nostril, Median, N=7, Day 29 dose after 28 days BID, read-out: Tmax", "value": 0.5, "unit": "h"}, {"measurement": "C0", "setting": "[1]; human, plasma, other: intranasal spray, […] Compound 1, 50 μL spray in each nostril, Day 29 predose after 28 days BID, detected in 4 out of 7 subjects, read-out: mean plasma concentration at time zero (predose)", "value": 0.264, "unit": "ng/mL"}, {"measurement": "concentration at 1 h", "setting": "[1]; human, plasma, other: intranasal spray, […] Compound 1, 50 μL spray in each nostril, at 1 h after intranasal administration on Day 29, read-out: peak of mean plasma exposure", "value": 2.07, "unit": "ng/mL"}, {"measurement": "concentration at 24 h", "setting": "[1]; human, plasma, other: intranasal spray, […] Compound 1, 50 μL spray in each nostril, no subject above lower limit of quantification, read-out: plasma concentration at 24 h post administration", "value": "< 0.2", "unit": "ng/mL"}, {"measurement": "fraction cleared from systemic circulation before the next administration", "setting": "[1]; if administered every 12 hours (4 half-lives), from maximum individual half-life", "value": "> 94", "unit": "%"}, {"measurement": "agonist character", "setting": "[2]", "value": "partial agonist"}, {"measurement": "Cmax", "setting": "[3]", "value": 2.92, "unit": "ng/mL"}]}
